Reference: US4001272A, “Herbicidal 2-fluoro-4-halo-phenyl-4,5,6,7-tetrahydro-2H-isoindole-1,3-diones” (E. I. Du Pont de Nemours and Company, priority 1974, dated 1977)

Key:
Type in all cases: in vivo
[1] = test system: foxtails (Setaria spp.); assay: Test B: overall spray in carrot field after weed emergence, percent control of foxtails; conditions: six weeks after treatment, 0.1% Tween 20
Text: (§1) Test B involved a field sown to carrots and in which the following weed species emerged naturally: crabgrass (Digitaria sanquinalis), foxtails (Setaria spp.), barnyardgrass (Echinochloa crusgalli), pigweed (Amaranthus spp.), ragweed (Ambrosia artemisiifolia), velvetleaf (Abutilon theophrasti), smartweed (Polygonum spp.) and lambsquarters (Chenopodium album). Sixteen days after sowing, when all species of weeds had emerged, the plants were sprayed overall with a 50% wettable powder formulation of 2-(4-chloro-2-fluorophenyl)4,5,6,7-tetrahydro-2H-isoindole-1,3dione (Treatment I) in the form of an aqueous suspension, at rates of 0.5, 1.0, 2.0 and 4.0 kg/ha, and with 2-(4-chlorophenyl)-4,5,6,7-tetrahydro-2H-isoindole-1,3-dione (Treatment II) in the same form and at the same rates. The spray volume was 425 l/ha. The surfactant Tween 20* was added to all treatments in a concentration of 0.1% by weight. Six weeks after treatment, visual observations were made of percent weed control obtained and, for carrots, crop response.
(§2) *Tween 20 -- A trademark of ICI of America which is the reaction product of sorbitan monolaurate with an average of 20 moles of ethylene oxide.

[2] = test system: barnyardgrass (Echinochloa crusgalli); assay: Test B: overall spray in carrot field after weed emergence, percent control of barnyardgrass; conditions: six weeks after treatment, 0.1% Tween 20
Text: as §1, §2

[3] = test system: ragweed (Ambrosia artemisiifolia); assay: Test B: overall spray in carrot field after weed emergence, percent control of ragweed; conditions: six weeks after treatment, 0.1% Tween 20
Text: as §1, §2

[4] = test system: velvetleaf (Abutilon theophrasti); assay: Test B: overall spray in carrot field after weed emergence, percent control of velvetleaf; conditions: six weeks after treatment, 0.1% Tween 20
Text: as §1, §2

[5] = test system: smartweed (Polygonum spp.); assay: Test B: overall spray in carrot field after weed emergence, percent control of smartweed; conditions: six weeks after treatment, 0.1% Tween 20
Text: as §1, §2

[6] = test system: lambsquarters (Chenopodium album); assay: Test B: overall spray in carrot field after weed emergence, percent control of lambsquarters; conditions: six weeks after treatment, 0.1% Tween 20
Text: as §1, §2

[7] = test system: foxtail (Setaria spp.); assay: Test C: preemergence weed control in rice, foxtail; conditions: 29 days after treatment
Text: (§3) In test A, soybeans, peanuts, lima beans, green beans and squash were planted in a field infested with the following weed seeds: crabgrass (Digitaria sanquinalis), foxtails (Setaria spp.), barnyardgrass (Echinochloa crusgalli), pigweed (Amaranthus spp.), ragweed (Ambrosia artemisiifolia), velvetleaf (Abutilon theophrasti), purslane (Portulaca oleracea) and flower-of-an-hour (Hibiscus trionum). A 50% wettable powder formulation of 2-(4-chloro-2-fluorophenyl)-4,5,6,7-tetrahydro-2H-isoindole-1,3-dione was applied in the form of an aqueous suspension at rates of 0.125, 0.25, 0.5 and 1.0 kg/ha, each treatment replicated twice. The plots were rated for percent weed control and crop response seven weeks after treatment. Crop response was expressed on a scale of 0 = no injury to 10 = complete kill.
(§4) Test C concerned preemergence weed control in rice. The field selected contained seeds of the following weed species: crabgrass (Digitaria sanquinalis), foxtail (Setaria spp.), barnyardgrass (Echinochloa crusgalli), pigweed (Amaranthus spp.), ragweed (Ambrosia artemisiifolia), velvetleaf (Abutilon theophrasti), purslane (Portulaca oleracea) and flower-of-an-hour (Hibiscus trionum). Two varieties of rice, CSM-3 and Nato, were planted at depths of both 1 and 2 cm. In addition, rice seedlings of both varieties were transplanted into the field to be treated. Immediately thereafter, the plot was treated with an aqueous suspension of 2-(4-chloro-2-fluorophenyl)-4,5,6,7-tetrahydro-2H-isoindole-1,3-dione (Treatment I) at rates of 0.125 and 0.25 kg/ha, and an aqueous suspension of 2-(4-chlorophenyl)-4,5,6,7-tetrahydro-2H-isoindole-1,3dione (Treatment II) at rates of 0.25, 0.50, 1.00 and 2.00 kg/ha. The test chemicals had been formulated as 50% wettable powders. Overall spray volume was 540 l/ha. Ratings of percent weed control obtained and crop response were made 29 days after treatment, as described for test A. The ratings are summarized in the following Table III.

[8] = test system: barnyardgrass (Echinochloa crusgalli); assay: Test C: preemergence weed control in rice, barnyardgrass; conditions: 29 days after treatment
Text: as §3, §4

[9] = test system: velvetleaf (Abutilon theophrasti); assay: Test C: preemergence weed control in rice, velvetleaf; conditions: 29 days after treatment
Text: as §3, §4

[10] = test system: purslane (Portulaca oleracea); assay: Test C: preemergence weed control in rice, purslane; conditions: 29 days after treatment
Text: as §3, §4

[11] = test system: flower-of-an-hour (Hibiscus trionum); assay: Test C: preemergence weed control in rice, flower-of-an-hour; conditions: 29 days after treatment
Text: as §3, §4

[12] = test system: rice, variety Nato; assay: Test C: crop response of rice Nato; conditions: 29 days, 0 = no injury to 10 = complete kill; for Crop Response, Rice Nato, 1 cm: planting depth 1 cm; for Crop Response, Rice Nato, 2 cm: planting depth 2 cm; for Crop Response, Rice Nato, T: transplanted
Text: as §3, with “A 50% wettable powder formulation of 2-(4-chloro-2-fluorophenyl)-4,5,6,7-tetrahydro-2H-isoindole-1,3-dione was applied in the form of an aqueous suspension at rates of 0.125, 0.25, 0.5 and 1.0 kg/ha, each treatment replicated twice.” left out
Test C concerned preemergence weed control in rice. The field selected contained seeds of the following weed species: crabgrass (Digitaria sanquinalis), foxtail (Setaria spp.), barnyardgrass (Echinochloa crusgalli), pigweed (Amaranthus spp.), ragweed (Ambrosia artemisiifolia), velvetleaf (Abutilon theophrasti), purslane (Portulaca oleracea) and flower-of-an-hour (Hibiscus trionum). Two varieties of rice, CSM-3 and Nato, were planted at depths of both 1 and 2 cm. In addition, rice seedlings of both varieties were transplanted into the field to be treated. […] The test chemicals had been formulated as 50% wettable powders. Overall spray volume was 540 l/ha.

O=C1C2=C(CCCC2)C(=O)N1c1ccc(Cl)cc1 [Treatment II, 2-(4-chlorophenyl)-4,5,6,7-tetrahydro-2H-isoindole-1,3-dione]
% Control, Foxtails ([1]; 0.5 kg/ha): 0% | % Control, Foxtails ([1]; 1.0 kg/ha): 20% | % Control, Foxtails ([1]; 2.0 kg/ha): 40% | % Control, Foxtails ([1]; 4.0 kg/ha): 40% | % Control, Barnyardgrass ([2]; 0.5 kg/ha): 0% | % Control, Barnyardgrass ([2]; 1.0 kg/ha): 20% | % Control, Barnyardgrass ([2]; 2.0 kg/ha): 40% | % Control, Barnyardgrass ([2]; 4.0 kg/ha): 50% | % Control, Ragweed ([3]; 0.5 kg/ha): 50% | % Control, Ragweed ([3]; 1.0 kg/ha): 70% | % Control, Ragweed ([3]; 2.0 kg/ha): 90% | % Control, Ragweed ([3]; 4.0 kg/ha): > 99% | % Control, Velvetleaf ([4]; 0.5 kg/ha): 70% | % Control, Velvetleaf ([4]; 1.0 kg/ha): 80% | % Control, Velvetleaf ([4]; 2.0 kg/ha): 100% | % Control, Velvetleaf ([4]; 4.0 kg/ha): 100% | % Control, Smartweed ([5]; 0.5 kg/ha): 70% | % Control, Smartweed ([5]; 1.0 kg/ha): 80% | % Control, Smartweed ([5]; 2.0 kg/ha): 80% | % Control, Smartweed ([5]; 4.0 kg/ha): 99% | % Control, Lambsquarters ([6]; 0.5 kg/ha): 70% | % Control, Lambsquarters ([6]; 1.0 kg/ha): 80% | % Control, Lambsquarters ([6]; 2.0 kg/ha): 99% | % Control, Lambsquarters ([6]; 4.0 kg/ha): 99% | % Control, Foxtail ([7]; 0.25 kg/ha): 99% | % Control, Foxtail ([7]; 0.50 kg/ha): 100% | % Control, Foxtail ([7]; 1.0 kg/ha): 100% | % Control, Foxtail ([7]; 2.0 kg/ha): 100% | % Control, Barnyardgrass ([8]; 0.25 kg/ha): 58% | % Control, Barnyardgrass ([8]; 0.50 kg/ha): 97% | % Control, Barnyardgrass ([8]; 1.0 kg/ha): 99% | % Control, Barnyardgrass ([8]; 2.0 kg/ha): 100% | % Control, Velvetleaf ([9]; 0.25 kg/ha): 100% | % Control, Velvetleaf ([9]; 0.50 kg/ha): 100% | % Control, Velvetleaf ([9]; 1.0 kg/ha): 100% | % Control, Velvetleaf ([9]; 2.0 kg/ha): 100% | % Control, Purslane ([10]; 0.25 kg/ha): 100% | % Control, Purslane ([10]; 0.50 kg/ha): 100% | % Control, Purslane ([10]; 1.0 kg/ha): 100% | % Control, Purslane ([10]; 2.0 kg/ha): 100% | % Control, Flower-of-an-Hour ([11]; 0.25 kg/ha): 98% | % Control, Flower-of-an-Hour ([11]; 0.50 kg/ha): 100% | % Control, Flower-of-an-Hour ([11]; 1.0 kg/ha): 100% | % Control, Flower-of-an-Hour ([11]; 2.0 kg/ha): 100% | Crop Response, Rice Nato, 1 cm ([12]; 0.25 kg/ha): 5 | Crop Response, Rice Nato, 2 cm ([12]; 0.25 kg/ha): 0 | Crop Response, Rice Nato, T ([12]; 0.25 kg/ha): 1 | Crop Response, Rice Nato, 1 cm ([12]; 0.50 kg/ha): 8 | Crop Response, Rice Nato, 2 cm ([12]; 0.50 kg/ha): 1 | Crop Response, Rice Nato, T ([12]; 0.50 kg/ha): 1 | Crop Response, Rice Nato, 1 cm ([12]; 1.0 kg/ha): 9 | Crop Response, Rice Nato, 2 cm ([12]; 1.0 kg/ha): 4 | Crop Response, Rice Nato, T ([12]; 1.0 kg/ha): 1 | Crop Response, Rice Nato, 1 cm ([12]; 2.0 kg/ha): 9 | Crop Response, Rice Nato, 2 cm ([12]; 2.0 kg/ha): 6 | Crop Response, Rice Nato, T ([12]; 2.0 kg/ha): 2

O=C1C2=C(CCCC2)C(=O)N1c1ccc(Cl)cc1F [Treatment I, 2-(4-chloro-2-fluorophenyl)-4,5,6,7-tetrahydro-2H-isoindole-1,3-dione]
% Control, Foxtails ([1]; 0.5 kg/ha): 70% | % Control, Foxtails ([1]; 1.0 kg/ha): 90% | % Control, Foxtails ([1]; 2.0 kg/ha): 94% | % Control, Foxtails ([1]; 4.0 kg/ha): > 99% | % Control, Barnyardgrass ([2]; 0.5 kg/ha): 65% | % Control, Barnyardgrass ([2]; 1.0 kg/ha): 90% | % Control, Barnyardgrass ([2]; 2.0 kg/ha): 94% | % Control, Barnyardgrass ([2]; 4.0 kg/ha): > 99% | % Control, Ragweed ([3]; 0.5 kg/ha): 98% | % Control, Ragweed ([3]; 1.0 kg/ha): > 99% | % Control, Ragweed ([3]; 2.0 kg/ha): 100% | % Control, Ragweed ([3]; 4.0 kg/ha): 100% | % Control, Velvetleaf ([4]; 0.5 kg/ha): 100% | % Control, Velvetleaf ([4]; 1.0 kg/ha): 100% | % Control, Velvetleaf ([4]; 2.0 kg/ha): 100% | % Control, Velvetleaf ([4]; 4.0 kg/ha): 100% | % Control, Smartweed ([5]; 0.5 kg/ha): > 99% | % Control, Smartweed ([5]; 1.0 kg/ha): 100% | % Control, Smartweed ([5]; 2.0 kg/ha): 100% | % Control, Smartweed ([5]; 4.0 kg/ha): 100% | % Control, Lambsquarters ([6]; 0.5 kg/ha): 100% | % Control, Lambsquarters ([6]; 1.0 kg/ha): 100% | % Control, Lambsquarters ([6]; 2.0 kg/ha): 100% | % Control, Lambsquarters ([6]; 4.0 kg/ha): 100% | % Control, Foxtail ([7]; 0.125 kg/ha): 96% | % Control, Foxtail ([7]; 0.25 kg/ha): 100% | % Control, Barnyardgrass ([8]; 0.125 kg/ha): 90% | % Control, Barnyardgrass ([8]; 0.25 kg/ha): 99% | % Control, Velvetleaf ([9]; 0.125 kg/ha): 100% | % Control, Velvetleaf ([9]; 0.25 kg/ha): 100% | % Control, Purslane ([10]; 0.125 kg/ha): 100% | % Control, Purslane ([10]; 0.25 kg/ha): 100% | % Control, Flower-of-an-Hour ([11]; 0.125 kg/ha): 100% | % Control, Flower-of-an-Hour ([11]; 0.25 kg/ha): 100% | Crop Response, Rice Nato, 1 cm ([12]; 0.125 kg/ha): 3 | Crop Response, Rice Nato, 2 cm ([12]; 0.125 kg/ha): 1 | Crop Response, Rice Nato, T ([12]; 0.125 kg/ha): 0 | Crop Response, Rice Nato, 1 cm ([12]; 0.25 kg/ha): 6 | Crop Response, Rice Nato, 2 cm ([12]; 0.25 kg/ha): 2 | Crop Response, Rice Nato, T ([12]; 0.25 kg/ha): 0
